In patent publication US9034793B2, “Use of ribose to enhance plant growth” (Bioenergy, Inc., priority 2002, dated 2015):

System: bean seeds
Experiment: Plant growth and yield from bean seeds, daylight or darkness (Example 2)
Assay type: in vivo
Experimental: Three different treatments were explored on bean seeds to determine the effects of ribose (at two different doses) on plant growth and proliferation. [The three treatments include control (plain water), a 0.1332 M solution of ribose (5 g D-ribose dissolved in 250 ml water), and a 0.0666 M solution of ribose (5 g D-ribose dissolved in 500 ml water)]. The plants were kept under two different conditions, normal daylight and darkness. A total of six plants will be tested, with the conditions that each plant were tested at listed below. Treatments: [table] Each seed was planted under identical conditions (soil and pot size) and all at the same time. The environmental conditions (such as temperature and humidity), except for lighting, were kept constant for all the plants. Once potted, each seed received one to two tablespoons of treatment liquid (as mentioned above). A daily record was kept of the activity of each plant. Watering was done on every other day (or sooner if the soil was deemed too dry by the researcher), each again receiving one tablespoon of treatment liquid. Assessment of the effects of ribose fertilization was determined by measuring the time to the first appearance of a plant from the soil, the rate of growth, and leaf size. Table 3 represents the accumulated plant growth data from Example 2 and FIGS. 3 and 4 are graphic presentations of plant growth during light and dark conditions.

Q: What does the source list for `O=C[C@H](O)[C@H](O)[C@H](O)CO` [5/250, D-ribose]?
A: Amount of Growth Between Measurements (Dark, Day 0 (17-Sep)): 0; Plant growth-height (Dark, Day 0 (17-Sep)): 0; Rate of Growth Between Measurements (Dark, Day 0 (17-Sep)): 0; Amount of Growth Between Measurements (Dark, Day 3 (20-Sep)): 0; Plant growth-height (Dark, Day 3 (20-Sep)): 0; Rate of Growth Between Measurements (Dark, Day 3 (20-Sep)): 0; Amount of Growth Between Measurements (Dark, Day 5 (22-Sep)): 0; Plant growth-height (Dark, Day 5 (22-Sep)): 0; Rate of Growth Between Measurements (Dark, Day 5 (22-Sep)): 0; Rate of Growth Overall Thru Date (Dark, Day 5 (22-Sep)): 0; Amount of Growth Between Measurements (Dark, Day 7 (24-Sep)): 4.4; Plant growth-height (Dark, Day 7 (24-Sep)): 4.4; Rate of Growth Between Measurements (Dark, Day 7 (24-Sep)): 2.20; Rate of Growth Overall Thru Date (Dark, Day 7 (24-Sep)): 0.63; Amount of Growth Between Measurements (Dark, Day 8 (25-Sep)): 4.1; Plant growth-height (Dark, Day 8 (25-Sep)): 8.5; Rate of Growth Between Measurements (Dark, Day 8 (25-Sep)): 4.10; Rate of Growth Overall Thru Date (Dark, Day 8 (25-Sep)): 1.06; Amount of Growth Between Measurements (Dark, Day 9 (26-Sep)): 4.7; Plant growth-height (Dark, Day 9 (26-Sep)): 13.2; Rate of Growth Between Measurements (Dark, Day 9 (26-Sep)): 4.70; Rate of Growth Overall Thru Date (Dark, Day 9 (26-Sep)): 1.47; Amount of Growth Between Measurements (Dark, Day 10 (27-Sep)): 2.1; Plant growth-height (Dark, Day 10 (27-Sep)): 15.3; Rate of Growth Between Measurements (Dark, Day 10 (27-Sep)): 2.10; Rate of Growth Overall Thru Date (Dark, Day 10 (27-Sep)): 1.53; Amount of Growth Between Measurements (Dark, Day 11 (28-Sep)): 2.3; Plant growth-height (Dark, Day 11 (28-Sep)): 17.6; Rate of Growth Between Measurements (Dark, Day 11 (28-Sep)): 2.30; Rate of Growth Overall Thru Date (Dark, Day 11 (28-Sep)): 1.60; Amount of Growth Between Measurements (Dark, Day 12 (29-Sep)): 2; Plant growth-height (Dark, Day 12 (29-Sep)): 19.6; Rate of Growth Between Measurements (Dark, Day 12 (29-Sep)): 2.00; Rate of Growth Overall Thru Date (Dark, Day 12 (29-Sep)): 1.63; Amount of Growth Between Measurements (Dark, Day 13 (30-Sep)): 1.5; Plant growth-height (Dark, Day 13 (30-Sep)): 21.1; Rate of Growth Between Measurements (Dark, Day 13 (30-Sep)): 1.50; Rate of Growth Overall Thru Date (Dark, Day 13 (30-Sep)): 1.62; Amount of Growth Between Measurements (Dark, Day 16 (3-Oct)): 3.6; Plant growth-height (Dark, Day 16 (3-Oct)): 24.7; Rate of Growth Between Measurements (Dark, Day 16 (3-Oct)): 1.20; Rate of Growth Overall Thru Date (Dark, Day 16 (3-Oct)): 1.54; Amount of Growth Between Measurements (Light, Day 0 (17-Sep)): 0; Plant growth-height (Light, Day 0 (17-Sep)): 0; Rate of Growth Between Measurements (Light, Day 0 (17-Sep)): 0; Amount of Growth Between Measurements (Light, Day 3 (20-Sep)): 0; Plant growth-height (Light, Day 3 (20-Sep)): 0; Rate of Growth Between Measurements (Light, Day 3 (20-Sep)): 0; Amount of Growth Between Measurements (Light, Day 5 (22-Sep)): 1.1; Plant growth-height (Light, Day 5 (22-Sep)): 1.1; Rate of Growth Between Measurements (Light, Day 5 (22-Sep)): 0.55; Rate of Growth Overall Thru Date (Light, Day 5 (22-Sep)): 0.22; Amount of Growth Between Measurements (Light, Day 7 (24-Sep)): 4.4; Plant growth-height (Light, Day 7 (24-Sep)): 5.5; Rate of Growth Between Measurements (Light, Day 7 (24-Sep)): 2.20; Rate of Growth Overall Thru Date (Light, Day 7 (24-Sep)): 0.79; Amount of Growth Between Measurements (Light, Day 8 (25-Sep)): 9.5; Plant growth-height (Light, Day 8 (25-Sep)): 15; Rate of Growth Between Measurements (Light, Day 8 (25-Sep)): 9.50; Rate of Growth Overall Thru Date (Light, Day 8 (25-Sep)): 1.88; Amount of Growth Between Measurements (Light, Day 9 (26-Sep)): 4.1; Plant growth-height (Light, Day 9 (26-Sep)): 19.1; Rate of Growth Between Measurements (Light, Day 9 (26-Sep)): 4.10; Rate of Growth Overall Thru Date (Light, Day 9 (26-Sep)): 2.12; Amount of Growth Between Measurements (Light, Day 10 (27-Sep)): 4; Plant growth-height (Light, Day 10 (27-Sep)): 23.1; Rate of Growth Between Measurements (Light, Day 10 (27-Sep)): 4.00; Rate of Growth Overall Thru Date (Light, Day 10 (27-Sep)): 2.31; Amount of Growth Between Measurements (Light, Day 11 (28-Sep)): 2.6; Plant growth-height (Light, Day 11 (28-Sep)): 25.7; Rate of Growth Between Measurements (Light, Day 11 (28-Sep)): 2.60; Rate of Growth Overall Thru Date (Light, Day 11 (28-Sep)): 2.34; Amount of Growth Between Measurements (Light, Day 12 (29-Sep)): 0.7; Plant growth-height (Light, Day 12 (29-Sep)): 26.4; Rate of Growth Between Measurements (Light, Day 12 (29-Sep)): 0.70; Rate of Growth Overall Thru Date (Light, Day 12 (29-Sep)): 2.20; Amount of Growth Between Measurements (Light, Day 13 (30-Sep)): 0.2; Plant growth-height (Light, Day 13 (30-Sep)): 26.6; Rate of Growth Between Measurements (Light, Day 13 (30-Sep)): 0.20; Rate of Growth Overall Thru Date (Light, Day 13 (30-Sep)): 2.05; Amount of Growth Between Measurements (Light, Day 16 (3-Oct)): 1.7; Plant growth-height (Light, Day 16 (3-Oct)): 28.3; Rate of Growth Between Measurements (Light, Day 16 (3-Oct)): 0.57; Rate of Growth Overall Thru Date (Light, Day 16 (3-Oct)): 1.77; Amount of Growth Between Measurements (Light, Day 19 (6-Oct)): −0.7; Plant growth-height (Light, Day 19 (6-Oct)): 27.6; Rate of Growth Between Measurements (Light, Day 19 (6-Oct)): −0.23; Rate of Growth Overall Thru Date (Light, Day 19 (6-Oct)): 1.45
